In US20100016244A1, “D-GLUCOPYRANOSE 1-[3,5-BIS (1,1-DIMETHYLETHY)-4-HYDROXYBENZOATE] AND ITS DERIVATIVES, PREPARATION AND USE THEREOF” (priority 2006, published 2010):
≈ marks a conversion by molar mass, not a printed value.

Legend:
[1] = tested on: HIV; conditions: cited from earlier work
[2] = tested on: VHS (Herpes Simplex Virus); conditions: from FR 2 668 931; cited from earlier work
[3] = tested on: HIV
[4] = Solubility in water (tests 1-3); conditions: for pH: after stirring for 48 H at 23° C. in water
[5] = tested on: enveloped-viruses; experiment: Active concentration on enveloped-viruses; conditions: BHT versus RDW 031
[6] = tested on: VHS (Herpes Simplex Virus); experiment: Virucidal activity on VHS (Herpes Simplex Virus), decrease in log by concentration and contact time; conditions: for Decrease expressed in log: test n° 4
Method: Results of the tests conducted in the laboratory of Prof. Chiron, (Faculty of Pharmacy of Tours): [table] hypothesis: 10 mg/8 ml (solubility check) Stock-solution: 33.47 mg/24.10 ml (x 1.11 C) i.e.: 11.11 mg/8 ml [table]

[7] = tested on: polio virus
[8] = physchem; conditions: water, thermodynamic from solid
[9] = Studies on rats (progeny, mutagenic effect)

For `CC(C)(C)c1cc(C(=O)OCCOCCOCCOCCOCCOCCOCCOCCO)cc(C(C)(C)C)c1O` [AVF1, 3.5-di-tert-butyl-4-hydroxybenzoate octa-oxy-ethylene glycol], the “decrease of HIV's infectivity” value [1] is given as 7 log.

In the case of `CC(C)(C)c1cc(C(=O)O)cc(C(C)(C)C)c1O` [BG4, 3,5-di-t-butyl-4-hydroxybenoic acid], the “concentration required for effectiveness on VHS” value [2] is given as 0.5%, the “reduction of the virulence of a HIV culture” value [3] is given as 5 log and the “Solubility 12 H at 23° C.” value ([4]; Test No 2, water, RDW031 batch RV 34) is given as “insoluble”. The “Solubility after stirring for 48 H at 23° C.” value ([4]; Test no 3, 1 g + 100 ml H2O, RDW031 batch RV 41, BG4 from SIGMA-ALDRICH) was 0.13 mg/mL, the pH ([4]; Test no 3) was “pH = 5.6” and the “Solubilité ½ H à 23° c.” value ([4]; water, ½ H at 23° C.) was “No measurable”. The “Solubility ½ H at 100° C.” value ([4]; water, ½ H at 100° C., no desolubilization at room temperature) was 0.84 g/litre (no.

With `Cc1cc(C(C)(C)C)c(O)c(C(C)(C)C)c1` [BHT, butylhydroxytoluene] the “molar active concentration relative to RDW 031” value [5] was 100 times.

With `CC(C)(C)c1cc(C(=O)OC2O[C@H](CO)[C@@H](O)[C@H](O)[C@H]2O)cc(C(C)(C)C)c1O` (stereo partly drawn) [RDW031] the “active concentration, starting” value [6] was at least 0.0625%, the “Reduction expressed in log” value ([6]; 0.00125 mg/ml (1/1000), contact time 120 min) was 0.31 log and the “Reduction expressed in log” value ([6]; 0.00250 mg/ml (1/500), contact time 60 min) was 1.06 log. For the same compound, the “Reduction expressed in log” value ([6]; 0.00250 mg/ml (1/500), contact time 120 min) was 1.15 log, the “Reduction expressed in log” value ([6]; 0.00625 mg/ml (1/200), contact time 60 min) was 1.06 log and the “Reduction expressed in log” value ([6]; 0.02500 mg/ml (1/50), contact time 30 min) was 0.31 log. For the same compound, the “Reduction expressed in log” value ([6]; 0.06250 mg/ml (1/20), contact time 30 min) was 0.21 log, the “Reduction expressed in log” value ([6]; 0.25000 mg/ml (⅕), contact time 15 min) was 0.00 log and the “Reduction expressed in log” value ([6]; 0.62500 mg/ml (½), contact time 15 min) was 3.68 log. The “active concentration expressed” value ([6]; converted from % concentration) was at least 0.0015 mol, the “Decrease expressed in log” value ([6]; 0.17028 mg/ml (⅕), contact time 15 min) was 0.00 log and the “Decrease expressed in log” value ([6]; 0.17028 mg/ml (⅕), contact time 30 min) was 0.00 log. The “Decrease expressed in log” value ([6]; 0.17028 mg/ml (⅕), contact time 60 min) was 0.00 log, the “Decrease expressed in log” value ([6]; 0.17028 mg/ml (⅕), contact time 120 min) was 0.00 log and the “Decrease expressed in log” value ([6]; 0.42570 mg/ml (½), contact time 60 min) was 0.00 log. The “Decrease expressed in log” value ([6]; 0.42570 mg/ml (½), contact time 120 min) was 1.48 log, the “Decrease expressed in log” value ([6]; 0.85140 mg/ml (pur), contact time 15 min) was 1.25 log and the “Decrease expressed in log” value ([6]; 0.85140 mg/ml (pur), contact time 30 min) was 1.86 log. The “Decrease expressed in log” value ([6]; 0.85140 mg/ml (pur), contact time 60 min) was 2.15 log, the “Decrease expressed in log” value ([6]; 0.85140 mg/ml (pur), contact time 120 min) was 2.32 log and the “reduction of the virulence of a HIV culture” value [3] was 5 log. The pH ([4]; Test no 3) was “pH = 5.9”, the “effect on polio virus (naked-virus)” value [7] was “no effect” and the solubility at 0.5 h ([8]; 23 °C) was 0.04 mg/mL (≈ 97 µM). For the same compound, the solubility at 12 h ([8]; 23 °C) was 1.2 mg/mL (≈ 2910 µM), the solubility at 0.5 h ([8]; 100 °C) was 1.08 mg/mL (≈ 2620 µM) and the “effects on progeny and mutagenic effect” value [9] was “never shown any detectable effects”.
